Assays:
[1] = recently reported (ref. 43); cited from earlier work
[2] = tested on: latent HIV-1 proviruses; conditions: background, literature; cited from earlier work
[3] = tested on: latent HIV-1 vector provirus in NLE-S-G infected SupT1 cells; assay: Flow cytometry of GFP positive cells, mass population of NLE-S-G infected SupT1 cells; assay type: cell-based; conditions: mass population three weeks post-infection (2% before treatment), TNF-α 100 ng/ml, analyzed forty-eight hours after exposure
Excerpt: FIG. 2. Infection of SupT1 cells by NLE^-S-G vector virus. (A) The upper panels depict uninfected SupT1 cells. The lower panels show SupT1 cells that have been infected with NLE-S-G virus. The phase contrast (left panels) and fluorescence microscopy (right panels) images were captured five days post-infection. (B) Flow cytometric analysis of SupT1 cells either mock infected or infected with NLE^−S-G analyzed at day five post-infection or three weeks post-infection. […] Three weeks post infection mass population of unsorted NLE^−S-G infected SupT1 cells (10^6 cells/ml) were stimulated with TNF-α (100 ng/ml). Cells were analyzed forty-eight hours after exposure. Numbers represent the percentages of gfp positive cells. (C) SEAP activity in the conditioned media from NLE^−S-G infected unsorted SupT1 cells (10^6 cells/ml) four days, three weeks and one month post-infection. Three weeks post-infection, a sample (10^6 cells/ml) of a mass population of NLE^−S-G infected SupT1 cells was treated with TNF-α (100 ng/ml) and analyzed four days post activation. RLU, relative light units.
The infected mass population of cells was next tested for its ability to establish a latent infection. The infected mass population of SupT1 cells was maintained in culture for one month. […] This was also reflected in the reduction of SEAP expression by the third week (FIG. 2C). […]

[4] = tested on: latent HIV-1 vector provirus in 29ST1NLESG cells; assay: SEAP assay for late gene expression, 29ST1NLESG cells; assay type: cell-based; conditions: TNF-α 50 ng/ml, day 2 post treatment
Procedure: (§1) FIG. 3. Reactivation of early and late viral gene expression in three clonal cell lines by TNF-α. (A) 19ST1NLESG, 24ST1NLESG, and 29ST1NLESG cells (10^6/ml) were exposed to TNF-α (50 ng/ml) and four days after gfp expressing cells were analyzed by flow cytometry. The left panels show the histograms of unstimulated cells, and the right panels represent the histogram analysis of TNF-α (50 ng/ml) stimulated cells. Numbers show the percentages of gfp positive cells. (B) SEAP in the cultured media of untreated and TNF-α (50 ng/ml) stimulated 19ST1NLESG, 24ST1NLESG, 29ST1NLESG cells two and four days post plating. (C) Fold induction of SEAP expression in 19ST1NLESG, 24ST1NLESG, and 29ST1NLESG cells (10^6/m1) after stimulation with TNF-α (50 ng/ml). Readings were taken on the second and fourth days post activation. […]
(§2) In order to provide a well characterized system to identify molecules that can activate latent virus, SupT1 cell clones harboring latent vector provirus were isolated. […] Even at 0.1 ng/ml of TNF-α induction could be detected yielding SEAP activity 4-fold above background (FIG. 4).
(§3) 1×10^6 or 1×10^5 cells from the clonal cell lines or mass populations of infected cells were resuspended in RPMI media with or without the activator. […] The relative light units (RLU) were measured with a tube luminometer (Turner Designs 20/20) or a MLX Microtiter Plate Luminometer (DYNEX Technologies).

[5] = tested on: latent HIV-1 vector provirus in NLE-S-G infected SupT1 cells; assay: SEAP assay, mass population of NLE-S-G infected SupT1 cells; assay type: cell-based; conditions: mass population three weeks post-infection, TNF-α 100 ng/ml, four days post activation
Excerpt: The infected mass population of cells was next tested for its ability to establish a latent infection. The infected mass population of SupT1 cells was maintained in culture for one month. […] This was also reflected in the reduction of SEAP expression by the third week (FIG. 2C). It was shown in previous studies that tumor necrosis factor (TNF)-α could activate HIV-1 virus production from latently infected cell lines (30).
1×10^6 or 1×10^5 cells from the clonal cell lines or mass populations of infected cells were resuspended in RPMI media with or without the activator. At the indicated day post plating, samples were taken to determine the activity of SEAP. The assay was performed using a SEAP Detection kit (BD Biosciences, Palo Alto, Calif.) according to the manufacturer's protocol. The relative light units (RLU) were measured with a tube luminometer (Turner Designs 20/20) or a MLX Microtiter Plate Luminometer (DYNEX Technologies).

[6] = tested on: latent HIV-1 vector provirus in 24ST1NLESG cells; assay: SEAP assay for late gene expression, 24ST1NLESG cells; assay type: cell-based; conditions: for fold induction in SEAP activity: TNF-α 50 ng/ml
Procedure: FIG. 3. Reactivation of early and late viral gene expression in three clonal cell lines by TNF-α. (A) 19ST1NLESG, 24ST1NLESG, and 29ST1NLESG cells (10^6/ml) were exposed to TNF-α (50 ng/ml) and four days after gfp expressing cells were analyzed by flow cytometry. The left panels show the histograms of unstimulated cells, and the right panels represent the histogram analysis of TNF-α (50 ng/ml) stimulated cells. Numbers show the percentages of gfp positive cells. (B) SEAP in the cultured media of untreated and TNF-α (50 ng/ml) stimulated 19ST1NLESG, 24ST1NLESG, 29ST1NLESG cells two and four days post plating. (C) Fold induction of SEAP expression in 19ST1NLESG, 24ST1NLESG, and 29ST1NLESG cells (10^6/m1) after stimulation with TNF-α (50 ng/ml). Readings were taken on the second and fourth days post activation. Results shown are the means and standard deviations of one of three representative experiments.
FIG. 4. SEAP activation in 24ST1NLESG cells at different concentrations of TNF-α. SEAP synthesis by 24ST1NLESG cells (10^6/ml) four days post-activation with various concentrations (0.1 to 100 ng/ml) of TNF-α. The numbers above the bars show the fold induction of enzymatic activity calculated as ratio between the average value of RLU per sample induced cells compared to the mean RLU value of uninduced cells. RLU, relative light units. Results shown are the means and standard deviations of one of three representative experiments.
as §2, §3

[7] = tested on: latent HIV-1 vector provirus in 24ST1NLESG cells; assay: HIV-1 p24gag ELISA, 24ST1NLESG cells; assay type: cell-based; conditions: TNF-α 50 ng/ml
Procedure: FIG. 5. HIV-1 Gag p24 protein production in 24ST1NLESG cells. HIV-1 Gag p24 protein was detected in the cultured media of untreated and TNF-α (50ng/ml) treated 24ST1NLESG cells (10^6/ml) two and four days post-plating. Results shown are the means and standard deviations of one or two representative experiments.
To further characterize the 24ST1NLESG cell line, p24^gag expression was monitored using the ELISA after treatment with TNF-α (50 ng/ml) (FIG. 5).
HIV gag transfer assay. 1×10^6 SupT1 infected cells (latent mass population and clonal cell lines) were plated followed by harvesting supernatant one week later. Samples were collected both from TNF-α activated and untreated cells. They were passed through a 0.45-μm pore-size filter and used to inoculate […] 10^6 parental SupT1 cells for 24 h. The cells were washed twice with PBS and resuspended in fresh media. The same process was repeated once again with conditioned media from the targeted parental cells, and a new batch of SupT1 cells was treated. Passing the conditioned media over two sets of virgin SupT1 cells helps to assure that the carryover of gag protein in the samples will be eliminated and only the de novo synthesized protein, if present, will be assessed. […] Samples were considered virus free when the p24^gag concentration was below the detection threshold, which for this assay, was determined to be 10 pg/ml.

[8] = tested on: latent HIV-1 vector provirus in 24ST1NLESG cells; assay: Quantitative real-time RT-PCR of HIV-1 mRNA, 24ST1NLESG cells; assay type: cell-based; conditions: TNF-α 50 ng/ml, day 4 post-stimulation, normalized to β-actin
Procedure: FIG. 6. Real-time RT-PCR for relative quantification of HIV-1 mRNA levels in 24ST1NLESG cells before and after activation from latency. Quantitative real-time RT-PCR was performed with RNA isolated from 24ST1NLESG cells (10^6/ml) following one and four days after stimulation with TNF-α (50 ng/ml). cDNA was synthesized with polyT oligo, and the reactions were completed with primers to viral (Rev2) and cellular (β-actin) genes with SYBR green detection. The ‘Delta-delta method’ (PE Applied Biosystems) was used to compare the relative expression results (ΔCT) between the values obtained from the RNA samples from stimulated cells to the values obtained from RNA isolated from untreated cells. The results were normalized to the expression of β-actin. […]
The consistent reactivation of viral genes as evidenced by the pattern of expression of the three markers assayed correlated with an increase in the relative levels of total viral mRNA. The relative amount of total HIV-1 mRNA was determined by quantitative real-time PCR using primers to the second exon of rev (Rev2). […] Therefore, only the level of mature polyadenylated RNA was detected.
The relative ratio of viral RNA after stimulation of 24ST1NLESG latent cells was determined as described in the Examples using the relative RNA results obtained for the unstimulated 24ST1NLESG cells as a control. β-actin was used as a reference gene. […]

[9] = tested on: latent HIV-1 vector provirus in 19ST1NLESG cells; assay: SEAP assay for late gene expression, 19ST1NLESG cells; assay type: cell-based; conditions: TNF-α 50 ng/ml, day 2 post treatment
Procedure: as §1, §2, §3

Compound: CC(=O)O[C@@]12C[C@@H](C)[C@@]3(O)[C@@H](C=C(CO)C[C@]4(O)C(=O)C(C)=C[C@@H]34)[C@@H]1C2(C)C [prostratin]
- cytotoxicity [1]: significant cytotoxicity
- activation of latent virus [2]: able to activate latent virus

Compound: TNF-α
- number of GFP-positive cells after treatment [3]: 19%
- fold induction in SEAP activity [4]: ~150 fold
- increase in SEAP activity [5]: 400 fold
- SEAP activity above background ([6]; 0.1 ng/ml TNF-α, four days post-activation): 4 fold
- fold induction in SEAP activity ([6]; day 2 post treatment): ~400 fold
- fold induction in SEAP activity ([6]; day 4): approximately 600 fold
- concentration of p24gag above background ([7]; 2 days post-activation): 50 fold
- concentration of p24gag above background ([7]; 4 days post-activation): 100 fold
- increase in relative ratio of viral RNA [8]: at least 100 fold
- fold induction in SEAP activity [9]: approximately 50 fold

Compound: CCCCCCCCCCCCCC(=O)O[C@@H]1[C@@H](C)[C@@]2(O)[C@@H](C=C(CO)C[C@]3(O)C(=O)C(C)=C[C@@H]23)[C@@H]2C(C)(C)[C@]12OC(C)=O [PMA, phorbol 12-myristate 13-acetate]
- activation of latent virus [2]: could stimulate latent virus

Reference: patent publication US9017935B2, “HIV-1 latency model for high throughput screening” (priority 2005, dated 2015)
